Data from publication PMC8066339, “Optimization of 2-Acylaminocycloalkylthiophene Derivatives for Activity against Staphylococcus aureus RnpA” (Antibiotics, 2021).
“And” between values parts separate entries of the source, which are not always exact repeats. Identical values can stand only once. “Also recorded” adds a separate entry of the source. Like-named read-outs stand apart in the source and are kept apart here.

Tests used:
[1] = tested on: S. aureus strain UAMS-1; set-up: method as in Colquhoun et al. [34]; details: ref Colquhoun et al. [34]; cited from earlier work
[2] = tested on: S. aureus; set-up: method as in PMID 21347352, PMID 25605356, PMID 31035380; details: previously reported, Figure 1; cited from earlier work
[3] = MTT cytotoxicity testing; details: human, HEP G2 cells (human liver epithelial cells)
Protocol: For the scaffold to have translational significance, it must be non-toxic to human cells. Accordingly, an initial assessment of toxicity was performed using human liver epithelial (HEP G2) cells via a 3-(4,5-dimethylthiazol-2-yl)-2,5-diphenyltetrazolium bromide (MTT) assay in the presence of up to 400 µM of each analog. […] Viability of 70% was used as the cut-off criteria for toxicity (Figure 4, dashed line), according to ISO guidelines, as described in Materials and Methods.
Human liver epithelial cells (HEP G2) were cultured in Dulbecco’s Modified Eagle Medium (DMEM; Fisher Scientific, Hampton, NH) supplemented with 10% heat inactivated fetal bovine serum (FBS; Corning Life Sciences) and 1% penicillin/streptomycin (Thermofisher Scientific). Cells were incubated at 37 °C with 5% CO2 in Nunc (Roskilde, Denmark) tissue culture flasks. Cells were grown in monolayers until exceeding 70% confluency, removed with 0.25% trypsin (Fisher Scientific), resuspended in fresh medium, and used to seed approximately 2.5 × 10^5 cells/mL into each well of a 96 well tissue culture microplate (Nunc) containing 200 µL of fresh medium. Cytotoxicity testing was conducted according to the guidelines of the International Organization for Standardization (ISO) 10993-5:2009. After 24 h of incubation, the cell media was removed, and adherent cells were washed with 1× phosphate buffered saline (PBS). Cell media was supplemented with 5% per volume of compound at final concentrations from 12.5 µM to 400 µM and incubated 20–24 h at 37 °C with 5% CO2. After incubation, medium supplemented with compound was removed from the wells and replaced with 100 µL of fresh culture medium. Then, 10 µL of 12 mM (3-(4,5-dimethylthiazol-2-yl)-2,5-diphenyltetrazolium bromide (MTT) stock reagent (CyQUANT MTT cell proliferation kit; Thermofisher Scientific) was added to each well. After labeling the cells with the MTT reagent, all but 25 µL of medium was removed from the wells, and 50 µL of DMSO was added to each well and mixed thoroughly and cells were incubated at 37 °C with 5% CO2 for 10 min. After incubation, wells were mixed again and using a SPECTRAmax5 microplate reader, absorbance was read at 540 nm. Cells were treated with 125 µg/mL mitomycin C (Fisher Scientific) to serve as a positive control and 2% DMSO as a negative control. […] All compounds were tested in two independent experiments in triplicate and cell viability was expressed as a percent of the negative control.

[4] = tested on: S. aureus UAMS-1; test: Fractional inhibitory concentration (FIC) testing with mupirocin; type: cell-based, Staphylococcus aureus; details: Staphylococcus aureus
Protocol: Fractional inhibitory concentration (FIC) testing was performed, as previously described. Briefly, each well of a 96-well microtiter plate was inoculated with 10^4 CFU of S. aureus UAMS-1 [42]. Each row of the plate was supplemented with two-fold increasing concentrations of mupirocin (0 µg mL^−1 to 2 µg mL^−1) whereas each column contained two-fold increasing concentrations of putative RnpA inhibitor compound (0.03, 0.0625, 0.125, 0.25, 0.5, 1, or 2× MIC). […] The FIC index was defined by the following formula: FIC = (MIC of Drug A in Combination/MIC of Drug A Alone) + (MIC of Drug B in Combination/MIC of Drug B Alone). A synergistic interaction was defined as a FIC value of ≤0.5, an additive interaction as 0.5–1, no interaction as 1–4 and antagonistic interaction as FIC ≥ 4, as described.

[5] = tested on: S. aureus strain UAMS-1; test: Minimum inhibitory concentration (MIC) testing, CLSI broth microdilution; type: cell-based, Staphylococcus aureus; details: Staphylococcus aureus, UAMS1
Protocol: Staphylococcus aureus strains UAMS-1 is a well-characterized antibiotic susceptible osteomyelitis clinical isolate (Blevins Infect. Immun 2003). For experiments, UAMS-1 was cultured in Mueller Hinton (MH) broth and processed as described below. Escherichia coli strain BL21 (DE3) was cultured in Luria–Bertani (LB) and supplemented with ampicillin (50 µg ml^−1) where indicated.
Minimum inhibitory concentration (MIC) was performed according to the Clinical and Laboratory Standards Institute (CLSI) guidelines. Briefly, individual wells of a 96-well microtiter plate were inoculated with 10^4 colony forming units (CFU) of S. aureus UAMS-1 containing two-fold increasing concentrations (0 µM to 100 µM) of the indicated antibiotic or putative RnpA inhibitor and grown at 37 °C for 16 h in MH broth. The MIC was defined as the lowest concentration of compound in which there was no visible bacterial growth detected by the unaided eye.

[6] = biological target: T1, S. aureus RnpA (Staphylococcus aureus, UniProt P0A0H5); test: In vitro RnpA mRNA degradation assay (RNase Alert FRET substrate); type: biochemical
T1 construct: made in house; host or cells: E. coli BL21 (DE3)
T1 sequence (P0A0H5 1-117): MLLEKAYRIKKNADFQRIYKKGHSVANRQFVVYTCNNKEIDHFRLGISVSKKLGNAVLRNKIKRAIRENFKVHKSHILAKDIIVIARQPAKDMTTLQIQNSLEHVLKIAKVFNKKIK
Protocol: (§1) His-tagged RnpA was purified as previously described. E. coli BL21 (DE3) cells harboring plasmid pEXP5-nt containing a hexahistidine tag fused to the N-terminus of S.aureus RnpA coding region were grown in LB supplemented with 50 µg mL^−1 ampicillin to OD600 = 0.6 and induced with 1mM isopropyl β-D-1-thiogalactopyranoside (IPTG) for three hours to induce protein expression. […] Cells were mechanically lysed by three passes at 18,000 psi through a French Pressure Cell Press (SLM-Aminco; Pittsford, NY, USA) and cell debris was removed by centrifugation at 17,000× g for 10 min at 4 °C. Supernatants were collected, filtered through a 0.2 micron syringe filter, then loaded onto a 5 mL HisPur cobalt column (ThermoFisher Scientific, Waltham, MA, U.S.A.) using the BioRad Maximizer Duo-Flow Medium Pressure Chromatography System. Protein was eluted using an imidazole gradient (80 mM to 500 mM). Fractions were assessed for RnpA presence and purity via SDS-PAGE analysis, Coomassie staining and Western blotting using an anti-His antibody (Invitrogen; Grand Island, NY, USA).
RnpA-mediated degradation was assessed using the Rnase Alert QC System (Thermofisher Scientific). 20 pmol of His-RnpA was combined with 0.4 μM (final concentration) FRET substrate and either DMSO (negative control) or compound ≤500 µM in 1× Rnase Alert Buffer. Reactions were assembled in 96-well PCR plates (BioRad) and incubated at 37 °C for 30 min in the BioRad CFX 96 Connect Real Time instrument, measuring fluorescence every 2 min at 490 nm excitation/520 nm emission. Percent inhibition of each compound was calculated at the 30 min time-point based on the following formula: (RFU of compound treated RnpA/RFU of DMSO-treated RnpA) × 100.

[7] = biological target: T2, RNase P (RnpA + rnpB) (Staphylococcus aureus, UniProt P0A0H5); test: In vitro ptRNA^Tyr processing assay with reconstituted RNase P; type: biochemical; details: for IC50: average of at least two tests
T2 construct: made in house; host or cells: E. coli BL21 (DE3)
T2 sequence (P0A0H5 1-117): T1 sequence (P0A0H5 1-117)
Protocol: as §1
rnpB and RNA substrates (spa, ptRNA^Tyr) for RnpA functional assays, as well as mature tRNA were synthesized in vitro, as previously described. Each gene was PCR amplified using S. aureus UAMS-1 chromosomal DNA as a template and the corresponding oligonucleotide primer pairs, in which the forward primers contained an RNA polymerase T7 promoter sequence. The following primer pairs were used in this study (T7 promoter underlined): T7-rnpB forward—[…] and rnpB reverse—[…]; T7-ptRNA^Tyr forward—[…] and ptRNA^Tyr reverse—TGGTGGAG GGGGGCAGATTC; T7-spa forward—[…] CGACGTCCAG and spa reverse—[…]. Resulting PCR products were analyzed on a 0.8% agarose gel and purified using the Qiagen QIAquick Gel Extraction kit, according to the manufacturer’s instructions. In vitro transcription was performed using the TranscriptAid T7 High Yield Transcription kit (Fermentas; Burlington, ON, Canada) following manufacturer’s instructions. Following in vitro transcription, the RNA was treated with DNase I for 90 min and re-purified using the Qiagen RNeasy Mini kit. RNA was quantified using a NanoDrop2000 spectrophotometer.
S.aureus Rnase P activity assays were performed as previously described. Briefly, ptRNA^Tyr and rnpB RNA was denatured by heating to 95 °C for 5 min then slow cooled to room temperature. RNA species were then combined with 2× low salt buffer (50 mM Tris-HCl pH 8.0, 5 mM MgCl2) and incubated for 5 min at 37 °C. Rnase P was reconstituted by mixing an equal molar ratio of His-RnpA and rnpB for 15 min at 37 °C. […] Then, 5 pmol ptRNA^Tyr was added to each reaction and incubated for an additional 30 min at 37 °C. Reactions were stopped with 2× RNA loading dye (Thermo Scientific) and heating to 65 °C for 10 min. Samples were electrophoresed on a 7M urea/8% polyacrylamide gel then stained with 0.5 µg mL^−1 ethidium bromide. The BioRad EZ Gel Doc imaging system was used to visualize the RNA and relative abundance of mature tRNA^Tyr in the DMSO control or in the samples containing compound and analyzed using BioRad Image Lab densitometry software. The percent inhibitory activity of each compound was calculated using the following equation: (% experimental processing/% processing negative control) × 100.

SMILES: O=C(Nc1ccc(Cl)cc1)c1c(NC(=O)C(F)(F)F)sc2c1CCCCC2 [JR1]
- MIC [1]: 1.25 µM and 0.52 µg/mL
- S. aureus MIC [2]: 1.25 µM

SMILES: Cc1cc(/C=C(/C#N)C(=O)Nc2cccc(Br)c2)c(C)n1-c1ccc(C(=O)O)cc1 [RNP1000]
- S. aureus MIC [2]: 34 to 69 µM

SMILES: CC1CCN(C(=O)Nc2cc(Cl)cc(Cl)c2)CC1 [JC1]
- S. aureus MIC [2]: 3.4 µM

SMILES: CO[C@@]12[C@H](COC(N)=O)C3=C(C(=O)C(C)=C(N)C3=O)N1C[C@@H]1N[C@@H]12 [Mitomycin C, reference compound]
- viability at 400 µM [3]: 54.8%

SMILES: C/C(=C\C(=O)OCCCCCCCCC(=O)O)C[C@@H]1OC[C@H](C[C@@H]2O[C@H]2[C@@H](C)[C@H](C)O)[C@@H](O)[C@H]1O [Mup, mupirocin, reference compound]
- MIC ([4]; UAMS1, mupirocin alone, read-out: Mup MIC, Dosed-Individually): 0.5 µM

SMILES: O=C(Nc1cccc(Cl)c1)c1c(NC(=O)C(F)F)sc2c1CCCCC2 [RNP0017]
- MIC ([5]; S. aureus strain UAMS-1, read-out: MIC): > 200 µg/mL
- Inhibition of in vitro RnpA-mediated RNA degradation (in words) [6]: exhibited inhibitory activity
- IC50 ([6]; in vitro RnpA-mediated RNA degradation, read-out: mRNA IC50): 43 µM
- Inhibition of in vitro RnpA ptRNA processing (in words) [7]: did not appear to display any inhibition; also recorded: weak or no inhibitory activity
- IC50 ([7]; in vitro ptRNA^Tyr processing, read-out: ptRNA IC50): > 250 µM
- MIC ([4]; UAMS1, compound alone, read-out: Cpd MIC, Dosed-Individually): > 500 µM

SMILES: O=C(CF)Nc1sc2c(c1C(=O)Nc1cccc(Cl)c1)CCCCC2 [RNP0018]
- MIC [5]: > 200 µg/mL
- IC50 [6]: 33 µM
- Inhibition of in vitro RnpA-mediated RNA degradation (in words) [6]: good inhibitory properties; also recorded: exhibited inhibitory activity
- Inhibition of in vitro RnpA ptRNA processing (in words) [7]: good inhibitory properties
- IC50 ([7]; ptRNA IC50, in vitro ptRNA^Tyr processing): 58 µM
- MIC ([4]; UAMS1, read-out: Cpd MIC, Dosed-Individually): > 500 µM
